Experiments:
[1] = LogP (1-octanol/water partition coefficient) determined using HPLC; type: physicochemical
Description: Hydrophobicity is a key determinant of the activity and pharmacokinetics of biologically active compounds, and the octanol–water partition coefficient (P) and logarithm value (LogP) are widely used hydrophobicity parameters. The LogP values of the synthesized compounds were determined using HPLC [45, 46]. Table 1 summarizes the experimentally determined LogP values and calculated values. […] From the viewpoint of the phosphine structure, an increase in the number of carbon atoms increased hydrophobicity in a predictable manner.
The 1-octanol/water partition coefficient P was determined using HPLC based on the OECD Guideline for Testing Chemicals. A COSMOSIL Packed Column 5C18-MS-II (5 μm, 150 mm × 4.6 mm id, Nacalai Tesque, Inc., Kyoto, Japan) was fitted on an HPLC instrument (Multiwavelength Detector, MD-2010 Plus. JASCO, Tokyo, Japan) equipped with a pump (PU-2080, JASCO) and an oven (SSC-2120, Senshu Scientific Co., Ltd., Tokyo, Japan). The injection volume was 20 µL; the mobile phase was methanol–water 75% (v/v); and the flow rate was 1.0 mL/min in all cases. Compounds were detected by measuring the UV absorption at 240 nm. The temperature of the column was kept at 40.0 (± 0.1) °C during the measurement. The measurement was performed in triplicate, and the mean value was calculated. The dead time t0 was measured with thiourea as the unretained compound, and the capacity factor k was calculated using the equation logk = log (tr − t0/t0), where tr represents the retention time of the compound. A calibration graph was determined experimentally using reference compounds (4-methylphenol, 4-chlorophenol, 4-phenylphenol, diphenylether, fluoranthene, and dichlorodiphenyltrichloroethane) with known logP values. The LogP values of phosphine–boranes were calculated based on a calibration graph (LogP = 2.6269 logkw + 3.059, R^2 = 0.9915).

[2] = target: T1, progesterone receptor (PR) (Homo sapiens, UniProt P06401); assay: T47D alkaline phosphatase assay, PR antagonistic activity in the presence of 1 nM P4; type: cell-based; conditions: T47D cells; for IC50: 1.0 nM P4, 48 h, mean ± SD from three independent experiments; for PR antagonistic activity (in words): in the presence of 1 nM P4
T1 construct: alkaline phosphatase assay with the T47D human breast cancer cell line; endogenous in cells; host or cells: T47D
T1 sequence (P06401 1-933): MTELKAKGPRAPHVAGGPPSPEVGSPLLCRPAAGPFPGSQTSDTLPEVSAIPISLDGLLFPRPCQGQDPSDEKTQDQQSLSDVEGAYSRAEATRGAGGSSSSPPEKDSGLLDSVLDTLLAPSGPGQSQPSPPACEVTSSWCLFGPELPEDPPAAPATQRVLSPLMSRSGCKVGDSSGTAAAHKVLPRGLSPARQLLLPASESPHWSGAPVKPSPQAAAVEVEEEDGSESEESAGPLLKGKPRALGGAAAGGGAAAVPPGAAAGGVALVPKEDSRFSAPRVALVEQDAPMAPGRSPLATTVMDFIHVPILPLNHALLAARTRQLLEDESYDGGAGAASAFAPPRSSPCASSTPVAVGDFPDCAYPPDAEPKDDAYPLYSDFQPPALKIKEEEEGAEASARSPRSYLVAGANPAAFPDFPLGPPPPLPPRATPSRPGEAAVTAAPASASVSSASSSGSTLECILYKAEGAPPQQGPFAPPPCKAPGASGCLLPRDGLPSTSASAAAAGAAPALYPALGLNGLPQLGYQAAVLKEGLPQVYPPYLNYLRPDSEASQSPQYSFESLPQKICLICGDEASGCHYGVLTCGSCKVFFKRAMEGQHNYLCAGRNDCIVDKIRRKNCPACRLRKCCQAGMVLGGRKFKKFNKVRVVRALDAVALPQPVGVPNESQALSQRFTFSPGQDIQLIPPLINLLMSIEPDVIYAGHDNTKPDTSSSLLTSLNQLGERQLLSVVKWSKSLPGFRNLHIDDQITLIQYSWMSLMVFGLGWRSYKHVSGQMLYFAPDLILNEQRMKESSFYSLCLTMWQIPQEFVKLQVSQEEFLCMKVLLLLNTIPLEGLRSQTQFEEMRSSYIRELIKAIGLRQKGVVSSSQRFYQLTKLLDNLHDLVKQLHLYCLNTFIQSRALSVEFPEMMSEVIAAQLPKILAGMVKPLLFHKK
Description: The PR agonistic and antagonistic activities of the synthesized phosphine–borane derivatives were evaluated using an alkaline phosphatase assay with the T47D human breast cancer cell line. […] The basal alkaline phosphatase activity was also not affected by the tested compounds alone. […] The PR antagonistic activities of the compounds were assessed in the presence of 1 nM of P4 (5). We also calculated the molecular volume of each compound to investigate the structure–activity relationship (SAR). Table 2 summarizes the PR antagonistic activity and calculated volumes of the synthesized compounds. […] We investigated the binding affinity of the compounds toward the PR ligand-binding domain (LBD) using a fluorescence polarization assay system. […] We also investigated the activity of compounds 28 and 34 toward the androgen receptor (AR) by means of cell-proliferation promoting/inhibitory activity toward androgen-dependent SC-3 cells. […].
T47D alkaline phosphatase assays were performed as previously described, with minor modifications. Briefly, the human breast cancer cell line T47D (HMS LINCS database Accession Numbers: 50541) was routinely cultivated in RPMI 1640 medium with 10% FBS at 37 °C in a 5% CO2 humidified incubator. The cells were plated in 96-well plates and incubated overnight in a 5% CO2 humidified incubator at 37 °C. The next day, the cells were treated with a fresh medium containing the test compound in the presence of 1 nM of progesterone and further incubated for 48 h. The medium was aspirated, and the cells were fixed with 100 μL of 1.8% formalin–PBS. The fixed cells were washed with PBS, and 100 μL of an assay buffer (1 mg/mL p-nitrophenol phosphate in diethanolamine water solution, pH 9.0) was added. The mixture was incubated at room temperature for 2 h under light-shielded conditions. The absorbance was measured at 405 nm using a DTX 880 Multimode Detector (Beckman Coulter, Brea, CA, USA). All data points were measured in triplicate, and IC50 values were calculated from three independent experiments.

[3] = HPLC, tentative value: hydrophobicity beyond the range of the reference compounds (1.9 < LogP < 6.5)
[4] = HPLC (OECD guideline), C18 column, methanol–water 75% (v/v), 40 °C, mean of triplicate

Row | Structure (SMILES) | melting point [°C] | chromatographic logP [1, 3] | chromatographic logP [1, 4] | IC50 [2] [nM] | PR antagonistic activity (in words) [2]
1 | FC(F)(F)c1ccc([BH2-][PH+](C2CCCCC2)C2CCCCC2)cc1 [Compound 38, B-4-(Trifluoromethyl)phenyl Dicyclohexylphosphine–Borane] | 52.7 to 53.7 | 7.34 |  |  | 
2 | CC(C)[P+]([BH2-]c1cccc(C(F)(F)F)c1)(C(C)C)C(C)C [Compound 20, B-3-(Trifluoromethyl)phenyl Triisopropylphosphine–Borane] |  |  | 5.89 | 1350 ± 470 | potent activities
3 | CC(C)[P+]([BH2-]c1ccc(C(F)(F)F)cc1)(C(C)C)C(C)C [Compound 32, B-4-(Trifluoromethyl)phenyl Triisopropylphosphine–Borane] | 59 to 59.4 |  | 6.06 | 1510 ± 530 | 
4 | C[P+](C)([BH2-]c1ccc(C(F)(F)F)cc1)c1ccccc1 [Compound 29, B-4-(Trifluoromethyl)phenyl Dimethyl(phenyl)phosphine–Borane] | 78 to 78.3 |  | 4.65 | 1610 ± 870 | 
5 | FC(F)(F)c1cccc([BH2-][P+](C2CCCCC2)(C2CCCCC2)C2CCCCC2)c1 [Compound 25, B-3-(Trifluoromethyl)phenyl Tricyclohexylphosphine–Borane] | 100 to 100.5 | 8.69 |  | > 10000 | only weak potency
6 | C[P+](C)([BH2-]c1cccc(C(F)(F)F)c1)c1ccccc1 [Compound 17, B-(3-Trifluoromethyl)phenyl Dimethyl(phenyl)phosphine–Borane] | 75 to 75.8 |  | 4.54 | 1160 ± 600 | potent activities
7 | FC(F)(F)c1ccc([BH2-][P+](C2CCCCC2)(C2CCCCC2)C2CCCCC2)cc1 [Compound 37, B-4-(Trifluoromethyl)phenyl Tricyclohexylphosphine–Borane] | 126.7 to 127 | 8.97 |  | > 10000 | 
8 | CC[P+]([BH2-]c1ccc(C(F)(F)F)cc1)(CC)c1ccccc1 [Compound 31, B-4-(Trifluoromethyl)phenyl Diethyl(phenyl)phosphine–Borane] | 62 to 62.3 |  | 5.41 | 1780 ± 970 | 
9 | CN(C)[P+]([BH2-]c1cccc(C(F)(F)F)c1)(N(C)C)N(C)C [Compound 27, B-3-(Trifluoromethyl)phenyl Tris(dimethylamino)phosphine–Borane] |  |  | 5.39 | 1200 ± 630 | potent activities
10 | CC(C)[P+]([BH2-]c1ccc(C(F)(F)F)cc1)(c1ccccc1)C(C)C [Compound 33, B-4-(Trifluoromethyl)phenyl Diisopropyl(phenyl)phosphine–Borane] | 94.8 to 95.2 |  | 6.15 | 2010 ± 580 | 
11 | CC[P+]([BH2-]c1cccc(C(F)(F)F)c1)(CC)CC [Compound 18, B-3-(Trifluoromethyl)phenyl Triethylphosphine–Borane] |  |  | 4.88 | 3670 ± 3340 | moderate PR antagonistic activity
12 | CC[P+]([BH2-]c1ccc(C(F)(F)F)cc1)(CC)CC [Compound 30, B-4-(Trifluoromethyl)phenyl Triethylphosphine–Borane] |  |  | 4.99 | 1760 ± 1440 | 
13 | CCCC[P+]([BH2-]c1cccc(C(F)(F)F)c1)(CCCC)CCCC [Compound 23, B-3-(Trifluoromethyl)phenyl Tri-n-Butylphosphine–Borane] |  | 7.34 |  | > 10000 | only weak potency
14 | CC[P+]([BH2-]c1cccc(C(F)(F)F)c1)(CC)c1ccccc1 [Compound 19, B-3-(Trifluoromethyl)phenyl Diethyl(phenyl)phosphine–Borane] | 40 to 40.5 |  | 5.24 | 1120 ± 220 | potent activities
15 | CCCC[P+]([BH2-]c1ccc(C(F)(F)F)cc1)(CCCC)CCCC [Compound 35, B-4-(Trifluoromethyl)phenyl Tri-n-butylphosphine–Borane] | 33.2 to 33.8 | 7.5 |  | > 10000 | 
16 | CC(C)[P+]([BH2-]c1cccc(C(F)(F)F)c1)(c1ccccc1)C(C)C [Compound 21, B-3-(Trifluoromethyl)phenyl Diisopropyl(phenyl)phosphine–Borane] | 118.7 to 119.1 |  | 5.93 | 3350 ± 1490 | moderate PR antagonistic activity
17 | C[P+](C)(C)[BH2-]c1cccc(C(F)(F)F)c1 [Compound 16, B-3-(Trifluoromethyl)phenyl Trimethylphosphine–Borane] |  |  | 3.65 | > 10000 | only weak potency
18 | FC(F)(F)c1cccc([BH2-][PH+](C2CCCCC2)C2CCCCC2)c1 [Compound 26, B-3-(Trifluoromethyl)phenyl Dicyclohexylphosphine–Borane] |  | 7.28 |  |  | 
19 | FC(F)(F)c1cccc([BH2-][P+](C2CC2)(C2CC2)C2CC2)c1 [Compound 22, B-3-(Trifluoromethyl)phenyl Tricyclopropylphosphine–Borane] |  |  | 5.21 | 650 ± 170 | potent activities
20 | FC(F)(F)c1cccc([BH2-][P+](C2CCCC2)(C2CCCC2)C2CCCC2)c1 [Compound 24, B-3-(Trifluoromethyl)phenyl Tricyclopentylphosphine–Borane] |  | 7.84 |  | 6640 ± 870 | moderate PR antagonistic activity
21 | CN(C)[P+]([BH2-]c1ccc(C(F)(F)F)cc1)(N(C)C)N(C)C [Compound 39, B-4-(Trifluoromethyl)phenyl Tris(dimethylamino)phosphine–Borane] | 41.1 to 41.6 |  | 5.64 | 1400 ± 880 | 

From PMC11013038, “Design, Synthesis, and Evaluation of B-(Trifluoromethyl)phenyl Phosphine–Borane Derivatives as Novel Progesterone Receptor Antagonists” (Molecules, 2024)
